What is called IC50 is the midpoint of a concentration-inhibition curve. A high value points to weaker potency.

One experiment concerns the target ALK (h) (Homo sapiens (Human), UniProt Q9UM73). The experiment can be described thus: Kinase assay, single dose inhibition (Millipore, 33P-ATP filter binding). It is filed as biochemical. Particulars: 0.1 μM test compound, 10 μM ATP; remaining activity relative to DMSO control = 100%.
The target of a further experiment is EGFR (h) (Homo sapiens (Human), UniProt P00533). Described as above. It is filed as biochemical. The following applies: 0.1 μM test compound, 10 μM ATP; remaining activity relative to DMSO control = 100%.
The target in a further experiment is EGFR (L858R) (h) (Homo sapiens (Human), UniProt P00533, L858R). Described as above. Format: biochemical. The following applies: 0.1 μM test compound, 10 μM ATP; remaining activity relative to DMSO control = 100%.
Another experiment deals with EGFR (T790M) (h) (Homo sapiens (Human), UniProt P00533, T790M). The experiment is described as above. The following applies: 0.1 μM test compound, 10 μM ATP; remaining activity relative to DMSO control = 100%. Format: biochemical.
In a further experiment the target is EGFR (T790M, L858R) (h) (Homo sapiens (Human), UniProt P00533, L858R/T790M). Described as above. It is filed as biochemical. The following applies: 0.1 μM test compound, 10 μM ATP; remaining activity relative to DMSO control = 100%.
The subject of experiment [1] is H1975 (EGFR L858R/T790M) NSCLC cells. The experiment can be described thus: Cell proliferation assay (MTS cell viability). Format: cell-based. The following applies: Homo sapiens, NCI-H1975, 72 h; H1975 cells, 3 days of exposure, MTS.
Experiment [2] has as its system HCC827 (EGFR Del) NSCLC cells. The experiment can be described thus: Cell proliferation assay (MTS cell viability). It is filed as cell-based. The following applies: Homo sapiens, 72 h; HCC827 cells, 3 days of exposure, MTS.

Chain of EGFR (L858R) (h) (P00533 25-1210 L858R): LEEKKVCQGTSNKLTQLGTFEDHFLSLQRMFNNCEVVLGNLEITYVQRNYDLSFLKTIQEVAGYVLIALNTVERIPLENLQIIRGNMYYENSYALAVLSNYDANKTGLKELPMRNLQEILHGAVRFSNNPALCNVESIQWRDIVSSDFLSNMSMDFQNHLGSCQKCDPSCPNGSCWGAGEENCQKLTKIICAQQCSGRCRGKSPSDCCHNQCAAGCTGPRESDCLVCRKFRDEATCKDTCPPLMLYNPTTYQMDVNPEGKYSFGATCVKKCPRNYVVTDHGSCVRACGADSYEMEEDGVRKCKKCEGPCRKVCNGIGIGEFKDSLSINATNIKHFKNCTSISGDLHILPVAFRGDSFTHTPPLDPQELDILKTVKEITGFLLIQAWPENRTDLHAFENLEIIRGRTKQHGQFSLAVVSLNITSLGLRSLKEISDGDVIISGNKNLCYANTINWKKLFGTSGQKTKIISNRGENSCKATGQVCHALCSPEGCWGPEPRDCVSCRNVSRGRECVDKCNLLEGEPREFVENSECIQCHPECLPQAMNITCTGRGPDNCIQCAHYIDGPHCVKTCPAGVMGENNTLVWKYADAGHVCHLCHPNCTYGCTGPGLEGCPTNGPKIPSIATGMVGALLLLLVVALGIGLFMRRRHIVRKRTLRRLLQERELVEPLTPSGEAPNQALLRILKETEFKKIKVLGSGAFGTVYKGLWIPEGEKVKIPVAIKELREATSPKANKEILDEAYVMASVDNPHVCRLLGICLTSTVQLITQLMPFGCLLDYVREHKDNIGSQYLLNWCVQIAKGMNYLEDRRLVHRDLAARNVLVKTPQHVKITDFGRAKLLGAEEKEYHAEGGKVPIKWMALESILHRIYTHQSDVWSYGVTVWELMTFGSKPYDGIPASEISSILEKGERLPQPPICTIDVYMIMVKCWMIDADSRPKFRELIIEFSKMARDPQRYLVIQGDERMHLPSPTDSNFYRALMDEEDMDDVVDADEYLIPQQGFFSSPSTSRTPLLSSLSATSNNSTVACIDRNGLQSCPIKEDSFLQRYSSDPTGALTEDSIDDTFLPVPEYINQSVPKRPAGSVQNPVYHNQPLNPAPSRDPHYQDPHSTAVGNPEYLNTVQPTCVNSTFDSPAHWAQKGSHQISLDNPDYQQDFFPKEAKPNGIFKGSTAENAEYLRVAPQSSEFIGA
Chain of EGFR (h) (P00533 25-1210): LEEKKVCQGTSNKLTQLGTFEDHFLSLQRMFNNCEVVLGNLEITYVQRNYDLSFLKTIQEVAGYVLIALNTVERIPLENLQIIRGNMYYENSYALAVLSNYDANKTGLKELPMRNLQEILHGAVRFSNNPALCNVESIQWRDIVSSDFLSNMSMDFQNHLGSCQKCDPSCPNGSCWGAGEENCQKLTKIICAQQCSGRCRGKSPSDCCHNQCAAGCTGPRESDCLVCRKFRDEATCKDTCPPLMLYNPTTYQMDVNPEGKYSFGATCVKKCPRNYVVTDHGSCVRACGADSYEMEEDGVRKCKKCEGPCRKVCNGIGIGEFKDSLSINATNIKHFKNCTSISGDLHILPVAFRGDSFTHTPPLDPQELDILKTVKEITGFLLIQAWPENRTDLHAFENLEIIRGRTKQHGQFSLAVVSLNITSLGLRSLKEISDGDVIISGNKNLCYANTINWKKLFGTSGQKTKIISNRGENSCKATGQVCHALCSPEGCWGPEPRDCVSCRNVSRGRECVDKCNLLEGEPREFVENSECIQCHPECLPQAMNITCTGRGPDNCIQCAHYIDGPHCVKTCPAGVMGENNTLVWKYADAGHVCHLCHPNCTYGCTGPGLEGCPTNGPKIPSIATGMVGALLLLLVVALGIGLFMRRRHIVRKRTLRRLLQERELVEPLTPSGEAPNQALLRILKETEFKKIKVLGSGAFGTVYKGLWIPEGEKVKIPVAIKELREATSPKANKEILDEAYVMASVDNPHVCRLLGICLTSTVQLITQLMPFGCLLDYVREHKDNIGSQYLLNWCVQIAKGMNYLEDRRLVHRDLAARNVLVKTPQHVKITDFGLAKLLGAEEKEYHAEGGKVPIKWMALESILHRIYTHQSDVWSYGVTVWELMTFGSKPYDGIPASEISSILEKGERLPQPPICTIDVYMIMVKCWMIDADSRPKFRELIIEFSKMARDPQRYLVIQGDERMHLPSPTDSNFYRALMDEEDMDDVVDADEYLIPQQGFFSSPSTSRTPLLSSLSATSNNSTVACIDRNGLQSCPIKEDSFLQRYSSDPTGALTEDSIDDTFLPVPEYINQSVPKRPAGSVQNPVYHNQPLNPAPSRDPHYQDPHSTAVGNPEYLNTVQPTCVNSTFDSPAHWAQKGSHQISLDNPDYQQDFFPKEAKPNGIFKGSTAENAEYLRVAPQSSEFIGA
Chain of EGFR (T790M, L858R) (h) (P00533 25-1210 T790M/L858R): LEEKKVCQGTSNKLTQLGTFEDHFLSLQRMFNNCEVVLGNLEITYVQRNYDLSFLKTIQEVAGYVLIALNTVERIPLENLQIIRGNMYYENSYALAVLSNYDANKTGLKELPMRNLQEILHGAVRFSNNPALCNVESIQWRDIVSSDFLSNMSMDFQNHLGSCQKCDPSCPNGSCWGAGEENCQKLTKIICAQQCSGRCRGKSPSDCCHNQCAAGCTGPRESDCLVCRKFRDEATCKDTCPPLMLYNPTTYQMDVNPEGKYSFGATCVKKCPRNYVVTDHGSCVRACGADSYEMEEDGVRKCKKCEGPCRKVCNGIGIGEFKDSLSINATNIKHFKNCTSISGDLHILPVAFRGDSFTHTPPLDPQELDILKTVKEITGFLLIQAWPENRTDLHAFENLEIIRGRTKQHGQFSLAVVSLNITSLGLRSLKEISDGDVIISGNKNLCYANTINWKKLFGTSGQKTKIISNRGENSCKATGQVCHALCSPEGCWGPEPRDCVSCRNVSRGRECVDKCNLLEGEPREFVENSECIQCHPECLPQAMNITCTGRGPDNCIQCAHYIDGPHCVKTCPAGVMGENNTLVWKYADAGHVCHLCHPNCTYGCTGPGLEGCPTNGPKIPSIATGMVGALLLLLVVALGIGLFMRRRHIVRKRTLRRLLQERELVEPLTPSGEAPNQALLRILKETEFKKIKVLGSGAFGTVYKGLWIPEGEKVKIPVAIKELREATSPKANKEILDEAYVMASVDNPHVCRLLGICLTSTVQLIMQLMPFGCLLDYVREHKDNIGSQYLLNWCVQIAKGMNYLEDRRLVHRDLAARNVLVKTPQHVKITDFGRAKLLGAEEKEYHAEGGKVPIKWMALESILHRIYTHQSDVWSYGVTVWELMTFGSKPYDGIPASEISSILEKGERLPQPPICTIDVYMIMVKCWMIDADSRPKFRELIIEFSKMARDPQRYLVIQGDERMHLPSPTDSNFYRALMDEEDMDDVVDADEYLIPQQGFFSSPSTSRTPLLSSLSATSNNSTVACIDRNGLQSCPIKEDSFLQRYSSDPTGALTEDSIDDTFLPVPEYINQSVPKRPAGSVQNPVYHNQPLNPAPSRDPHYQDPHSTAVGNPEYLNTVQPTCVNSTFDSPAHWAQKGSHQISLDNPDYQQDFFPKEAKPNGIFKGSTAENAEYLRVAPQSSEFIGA
Chain of EGFR (T790M) (h) (P00533 25-1210 T790M): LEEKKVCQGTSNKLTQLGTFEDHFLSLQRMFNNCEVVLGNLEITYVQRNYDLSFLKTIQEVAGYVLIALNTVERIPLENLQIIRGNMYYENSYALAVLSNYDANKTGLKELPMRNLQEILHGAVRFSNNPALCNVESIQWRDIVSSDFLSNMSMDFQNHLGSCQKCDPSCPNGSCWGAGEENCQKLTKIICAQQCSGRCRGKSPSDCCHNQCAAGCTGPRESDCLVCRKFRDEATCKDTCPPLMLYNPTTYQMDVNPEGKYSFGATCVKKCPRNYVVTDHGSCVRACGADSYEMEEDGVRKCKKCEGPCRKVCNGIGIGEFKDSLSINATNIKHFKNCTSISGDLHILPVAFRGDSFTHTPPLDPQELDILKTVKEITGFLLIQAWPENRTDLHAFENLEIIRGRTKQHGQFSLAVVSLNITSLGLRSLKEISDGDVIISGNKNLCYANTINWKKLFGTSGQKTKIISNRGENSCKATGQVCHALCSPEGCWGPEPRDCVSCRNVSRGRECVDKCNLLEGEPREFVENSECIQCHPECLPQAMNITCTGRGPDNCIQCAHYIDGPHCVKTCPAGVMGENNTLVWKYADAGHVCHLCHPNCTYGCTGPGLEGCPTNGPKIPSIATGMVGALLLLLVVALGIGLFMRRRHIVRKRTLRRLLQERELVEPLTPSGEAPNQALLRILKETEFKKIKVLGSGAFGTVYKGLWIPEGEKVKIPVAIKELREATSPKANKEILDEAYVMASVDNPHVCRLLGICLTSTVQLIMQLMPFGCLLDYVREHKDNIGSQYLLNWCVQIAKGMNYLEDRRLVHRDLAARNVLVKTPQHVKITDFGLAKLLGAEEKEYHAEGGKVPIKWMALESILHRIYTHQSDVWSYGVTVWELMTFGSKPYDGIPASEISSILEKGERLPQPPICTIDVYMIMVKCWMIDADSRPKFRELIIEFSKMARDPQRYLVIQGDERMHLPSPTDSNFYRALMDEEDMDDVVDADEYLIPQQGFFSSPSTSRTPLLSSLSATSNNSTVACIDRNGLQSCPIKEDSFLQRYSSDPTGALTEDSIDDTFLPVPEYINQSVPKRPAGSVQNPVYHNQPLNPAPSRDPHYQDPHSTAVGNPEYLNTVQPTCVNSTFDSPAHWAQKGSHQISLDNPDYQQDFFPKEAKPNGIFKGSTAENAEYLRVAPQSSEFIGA

On to `CN(C)C(=O)C(=O)c1ccccc1Nc1nc(Nc2ccc(F)c(NC(=O)CCN3CCOCC3)c2)ncc1Cl` [Example 123, N-(5-(5-chloro-4-(2-(2-(dimethylamino)-2-oxoactyl)phenylamino)pyrimidin-2-ylamino)-2-fluorophenyl)-3-morpholinopropanamide], for which, on ALK (h), the “Activity (control) % ALK (h)” value turned out to be 17%. For the same compound, the “Activity (control) % EGFR (h)” value on EGFR (h) is listed as 115%. In addition, at EGFR (L858R) (h), the “Activity (control) % EGFR (L858R) (h)” value is reported as 94%. The “Activity (control) % EGFR (T790M) (h)” value on EGFR (T790M) (h) is 84%. Further, the “Activity (control) % EGFR (T790M, L858R) (h)” value on EGFR (T790M, L858R) (h) came out at 31%.
As to `COc1ccc(NC(=O)/C=C/CN(C)C)cc1Nc1ncc(Cl)c(Nc2ccccc2C(=O)C(=O)N(C)C)n1` [Example 80, (E)-N-(3-(5-chloro-4-(2-(2-(dimethylamino)-2-oxoacetyl)phenylamino)pyrimidin-2-ylamino)-4-methoxyphenyl)-4-(dimethylamino)but-2-enamide], on ALK (h), the “Activity (control) % ALK (h)” value was 10%. Moreover, the “Activity (control) % EGFR (h)” value at EGFR (h) was determined as 101%. The “Activity (control) % EGFR (L858R) (h)” value at EGFR (L858R) (h) was 43%. Moreover, the “Activity (control) % EGFR (T790M) (h)” value at EGFR (T790M) (h) was determined as 42%. For the same compound, the “Activity (control) % EGFR (T790M, L858R) (h)” value on EGFR (T790M, L858R) (h) is 7%.
As for “N-(5-(5-chloro-4-(2-(2-(dimethylamino)-2-oxoactyl)phenylamino)pyrimidin-2-ylamino)-2-(2-(dimethylamino)ethoxy)phenyl)acrylamide [Example 115]”, the “Activity (control) % ALK (h)” value on ALK (h) amounted to 6%.
Consider `CCC(=O)Nc1cc(Nc2ncc(Cl)c(Nc3ccccc3C(=O)C(=O)N(C)C)n2)ccc1OCCN(C)C` [Example 120, N-(5-(5-chloro-4-(2-(2-(dimethylamino)-2-oxoactyl)phenylamino)pyrimidin-2-ylamino)-2-(2-(dimethylamino)ethoxy)phenyl)propionamide], for which the “Activity (control) % ALK (h)” value on ALK (h) is 8%. Also, on EGFR (h), the “Activity (control) % EGFR (h)” value is on record as 115%. Further, at EGFR (L858R) (h), the “Activity (control) % EGFR (L858R) (h)” value worked out at 76%. Also, the “Activity (control) % EGFR (T790M) (h)” value on EGFR (T790M) (h) is given as 62%. Also, the “Activity (control) % EGFR (T790M, L858R) (h)” value at EGFR (T790M, L858R) (h) is on record as 14%.
For `C=CC(=O)Nc1cccc(Nc2nc(Nc3ccc(N4CCN(C(C)=O)CC4)cc3OC)ncc2C(F)(F)F)c1` [CO-1686, reference compound], the “Activity (control) % EGFR (h)” value on EGFR (h) was 92%. Also, the “Activity (control) % EGFR (L858R) (h)” value at EGFR (L858R) (h) was found to be 97%. For the same compound, the “Activity (control) % EGFR (T790M) (h)” value on EGFR (T790M) (h) is 21%. Further, the “Activity (control) % EGFR (T790M, L858R) (h)” value at EGFR (T790M, L858R) (h) is reported as 7%.
For the compound `C=CC(=O)N1CCOc2ccc(Nc3ncc(Cl)c(Nc4ccccc4C(=O)C(=O)N(C)C)n3)cc21` [Example 87, 2-(2-(2-(4-acryloyl-3,4-dihydro-2H-benzo[b][1,4]oxazin-6-ylamino)-5-chloropyrimidin-4-ylamino)phenyl)-N,N-dimethyl-2-oxoacetamide], the “Activity (control) % ALK (h)” value at ALK (h) came to 5%.
Turning to `COc1cc(N2CCC(N(C)C)CC2)ccc1Nc1ncc(Cl)c(Nc2ccccc2C(=O)C(=O)NC2CC2)n1` [Example 25, 2-(2-((5-chloro-2-((4-(4-(dimethylamino)piperidin-1-yl)-2-methoxyphenyl)amino)pyrimidin-4-yl)amino)phenyl)-N-cyclopropyl-2-oxoacetamide], the IC50 in experiment [1] and in experiment [2] was over 3000 nM each time.
Regarding `COc1cc(N2CCOCC2)ccc1Nc1ncc(Cl)c(Nc2ccccc2C(=O)C(=O)N(C)C)n1` [Example 48, 2-(2-(5-chloro-2-(2-methoxy-4-morpholinophenylamino)pyrimidin-4-ylamino)phenyl)-N,N-dimethyl-2-oxoacetamide], the IC50 in experiment [1] turned out to be 1950 nM; in experiment [2], 1940 nM.
The matching figures for `COc1cc(N2CCC(N(C)C)CC2)ccc1Nc1ncc(Cl)c(Nc2ccccc2C(=O)C(=O)N2CCOCC2)n1` [Example 18, 1-(2-((5-chloro-2-((4-(4-(dimethylamino)piperidin-1-yl)-2-methoxyphenyl)amino)pyrimidin-4-yl)amino)phenyl)-2-morpholinoethane-1,2-dione]: 2860 nM and over 3000 nM.

(Values after patent US10059688B2, “Protein tyrosine kinase modulators and methods of use” (BETTA PHARMACEUTICALS CO., LTD., priority 2013, dated 2018).)
